Experiments:
Assay type in all cases: in vivo, chicken chicks
[1] = test system: Eimeria acervulina, Eimeria maxima and Eimeria tenella; assay: Cage experiments coccidiosis/chicks, mixed experimental infection
Protocol: (§1) The efficacy of the compounds according to the invention can be confirmed, for example, in cage experiments using the following experimental arrangement, in which the animals are treated with the respective individual components and with the mixtures of the individual components.
(§2) An active compound-containing feed is prepared in such a way that the required amount of active compound is thoroughly mixed with a nutritionally balanced animal feed, e.g. with the chick feed indicated below.
(§3) 8 to 12 day-old male chicken chicks raised under coccidea-free conditions (e.g. LSL Brinkschulte/Senden) receive the compounds according to the invention (test substances) from 3 days before (day -3) the infection (=a.i.) until 8 (9) days after the infection (=p.i.) with the feed in the concentration indicated in ppm. Three animals are kept in each cage. Per dose, one to a number of groups of this type are employed. Infection is carried out by means of a stomach tube directly into the crop using approximately 100,000 sporulated oocysts of Eimeria acervulina and with in each case approximately 30,000 oocysts of E. maxima and 40,000 sporulated oocysts of E. tenella. These are highly virulent strains. The exact infectious dose is adjusted such that if possible one of three experimentally infected untreated chicks dies due to infection. For the assessment of the efficacy, the following criteria are taken into consideration: weight increase from the start of the experiment to the end of the experiment, death rate due to infection, macroscopic assessment of the faeces with respect to diarrhoea and excretion of blood on days 5 and 7 p.i. (grade 0 to 6), macroscopic grade of the intestinal mucous membrane, in particular of the cecums (grade 0 to 6) and the oocyst excretion and also the proportion (in %) of the oocysts sporulating within 24 hours. The number of oocysts in the faeces was determined with the aid of the McMaster counting chamber (see Engelbrecht and coworkers “Parasitologische Arbeitsmethoden in Medizin und Veterinärmedizin, [Parasitological working methods in medicine and veterinary medicine] Akademie-Verlag, Berlin (1965)). The individual findings are related to the untreated noninfected control groups and an overall grade is calculated (cf. A. Haberkorn (1986), pp. 263 to 270 in Research in Avian Coccidiosis ed L. R. McDougald, L. P. Joyner, P. L. Long Proceedings of the Georgia Coccidiosis Conference Nov, 18-20, 1985 Athens/Ga. USA).
In the column “ppm”, the concentration of the active compound employed in the feed is indicated in ppm.
In the column “mortality”, the percentage of the animals which have died is indicated under % and the number of the animals which have died/animals employed in the experiment is indicated under n.
In the column “weight % of not inf. control”, the ratio of the weight of the treated animals to the weight of the noninfected control group is indicated.
(§4) In the columns “dropping scores”, “lesion score” and “oocyst control”, individual details of the action are given.
In the column “% efficacy”, the overall rating is assessed; 0% means no action, 100% means complete action.

[2] = test system: Eimeria acervulina; assay: Cage experiments coccidiosis/chicks, Eimeria acervulina part of the mixed infection; details: for Efficacy against Eimeria acervulina (grade): first symbol of cell; as to Efficacy against Eimeria acervulina (grade): key: 2 = complete action; 1 = weak action; 0 = inactive; D = death
Protocol: as §1, §2, §3, §4

[3] = test system: Eimeria maxima; assay: Cage experiments coccidiosis/chicks, Eimeria maxima part of the mixed infection; details: for Efficacy against Eimeria maxima (grade): second symbol of cell; as to Efficacy against Eimeria maxima (grade): key: 2 = complete action; 1 = weak action; 0 = inactive; D = death
Protocol: as §1, §2, §3, §4

[4] = test system: Eimeria tenella; assay: Cage experiments coccidiosis/chicks, Eimeria tenella part of the mixed infection; details: for Efficacy against Eimeria tenella (grade): third symbol of cell; as to Efficacy against Eimeria tenella (grade): key: 2 = complete action; 1 = weak action; 0 = inactive; D = death
Protocol: as §1, §2, §3, §4

[5] = 0 ppm in feed (so in the source)
[6] = 0 ppm in feed (so in the source), grade 0 to 6
[7] = 2.5 ppm in feed, listed as Ex. 13
[8] = 5 ppm in feed, listed as Ex. 13
[9] = 10 ppm in feed, listed as Ex. 13

Cc1oc(=O)oc1Cn1c(C(F)(F)F)nc2c(Cl)cc(C(F)(F)F)cc21 [Example 11]
% efficacy tot. [1, 5]: 39%
mortality % [1, 5]: 0%
mortality n (died/employed) [1, 5]: 0/3
oocyst in % of inf. control tot. [1, 5]: 34%
weight % of not inf. control [1, 5]: 52%
dropping scores [1, 6]: 6
lesion score [1, 6]: 6
% efficay tot. ([1]; 5 ppm): 11%
dropping scores ([1]; 5 ppm): 6
lesion score ([1]; 5 ppm): 6
mortality % ([1]; 5 ppm): 33%
mortality n ([1]; 5 ppm): 1/3
oocyst in % of inf. control tot. ([1]; 5 ppm): 47 % of inf. control
weight % of not inf. control ([1]; 5 ppm): 42 % of not inf. control
% efficacy tot. ([1]; 5 ppm in feed): 0%
mortality % ([1]; 5 ppm in feed): 66%
mortality n (died/employed) ([1]; 5 ppm in feed): 2/3
oocyst in % of inf. control tot. ([1]; 5 ppm in feed): >100%
weight % of not inf. control ([1]; 5 ppm in feed): 17%
dropping scores ([1]; 5 ppm in feed, grade 0 to 6): 6
lesion score ([1]; 5 ppm in feed, grade 0 to 6): 6
% efficay tot. ([1]; 7.5 ppm): 7%
dropping scores ([1]; 7.5 ppm): 6
lesion score ([1]; 7.5 ppm): 6
mortality % ([1]; 7.5 ppm): 0%
mortality n ([1]; 7.5 ppm): 0/3
oocyst in % of inf. control tot. ([1]; 7.5 ppm): 75 % of inf. control
weight % of not inf. control ([1]; 7.5 ppm): 58 % of not inf. control
% efficay tot. ([1]; 10 ppm): 22%
dropping scores ([1]; 10 ppm): 6
lesion score ([1]; 10 ppm): 6
mortality % ([1]; 10 ppm): 33%
mortality n ([1]; 10 ppm): 1/3
oocyst in % of inf. control tot. ([1]; 10 ppm): 72 % of inf. control
weight % of not inf. control ([1]; 10 ppm): 41 % of not inf. control
% efficacy tot. ([1]; 25 ppm in feed): 79%
mortality % ([1]; 25 ppm in feed): 0%
mortality n (died/employed) ([1]; 25 ppm in feed): 0/3
oocyst in % of inf. control tot. ([1]; 25 ppm in feed): 0%
weight % of not inf. control ([1]; 25 ppm in feed): 67%
dropping scores ([1]; 25 ppm in feed, grade 0 to 6): 2
lesion score ([1]; 25 ppm in feed, grade 0 to 6): 0
oocyst in % of inf. control ac. [2, 5]: 38%
oocyst in % of inf. control ac. ([2]; 5 ppm): 19 % of inf. control
oocyst in % of inf. control ac. ([2]; 5 ppm in feed): >100%
oocyst in % of inf. control ac. ([2]; 7.5 ppm): 22 % of inf. control
oocyst in % of inf. control ac. ([2]; 10 ppm): 91 % of inf. control
oocyst in % of inf. control ac. ([2]; 25 ppm in feed): 0%
Efficacy against Eimeria acervulina (grade) ([2]; Dose 5 ppm): 0
Efficacy against Eimeria acervulina (grade) ([2]; Dose 10 ppm): 1
Efficacy against Eimeria acervulina (grade) ([2]; Dose 25 ppm): 2
oocyst in % of inf. control max. [3, 5]: 0%
oocyst in % of inf. control max. ([3]; 5 ppm): >100 % of inf. control
oocyst in % of inf. control max. ([3]; 5 ppm in feed): 0%
oocyst in % of inf. control max. ([3]; 7.5 ppm): >100 % of inf. control
oocyst in % of inf. control max. ([3]; 10 ppm): 0 % of inf. control
oocyst in % of inf. control max. ([3]; 25 ppm in feed): 0%
Efficacy against Eimeria maxima (grade) ([3]; Dose 5 ppm): 0
Efficacy against Eimeria maxima (grade) ([3]; Dose 10 ppm): 1
Efficacy against Eimeria maxima (grade) ([3]; Dose 25 ppm): 2
oocyst in % of inf. control ten. [4, 5]: 27%
oocyst in % of inf. control ten. ([4]; 5 ppm): 91 % of inf. control
oocyst in % of inf. control ten. ([4]; 5 ppm in feed): >100%
oocyst in % of inf. control ten. ([4]; 7.5 ppm): >100 % of inf. control
oocyst in % of inf. control ten. ([4]; 10 ppm): 44 % of inf. control
oocyst in % of inf. control ten. ([4]; 25 ppm in feed): 0%
Efficacy against Eimeria tenella (grade) ([4]; Dose 5 ppm): 0
Efficacy against Eimeria tenella (grade) ([4]; Dose 10 ppm): 1
Efficacy against Eimeria tenella (grade) ([4]; Dose 25 ppm): 2

Cc1oc(=O)oc1Cn1c(C(F)(F)F)nc2cc(C(F)(F)F)c(C(F)(F)F)cc21 [Example 13]
% efficacy tot. ([1]; 2.5 ppm in feed): 15%
mortality % ([1]; 2.5 ppm in feed): 33%
mortality n (died/employed) ([1]; 2.5 ppm in feed): 1/3
oocyst in % of inf. control tot. ([1]; 2.5 ppm in feed): 41%
weight % of not inf. control ([1]; 2.5 ppm in feed): 61%
dropping scores ([1]; 2.5 ppm in feed, grade 0 to 6): 6
lesion score ([1]; 2.5 ppm in feed, grade 0 to 6): 6
% efficacy tot. [1, 7]: 16%
mortality % [1, 7]: 0%
mortality n (died/employed) [1, 7]: 0/3
oocyst in % of inf. control tot. [1, 7]: 57%
% efficacy tot. ([1]; 5 ppm in feed): 50%
mortality % ([1]; 5 ppm in feed): 33%
mortality n (died/employed) ([1]; 5 ppm in feed): 1/3
oocyst in % of inf. control tot. ([1]; 5 ppm in feed): 4%
weight % of not inf. control ([1]; 5 ppm in feed): 74%
dropping scores ([1]; 5 ppm in feed, grade 0 to 6): 6
lesion score ([1]; 5 ppm in feed, grade 0 to 6): 6
lesion score ([1]; 5 ppm in feed, grade 0 to 6, listed as Ex. 13): 4.6
% efficacy tot. [1, 8]: 32%
mortality % [1, 8]: 0%
mortality n (died/employed) [1, 8]: 0/3
oocyst in % of inf. control tot. [1, 8]: 26%
% efficacy tot. ([1]; 7.5 ppm in feed): 74%
mortality % ([1]; 7.5 ppm in feed): 0%
mortality n (died/employed) ([1]; 7.5 ppm in feed): 0/3
oocyst in % of inf. control tot. ([1]; 7.5 ppm in feed): 0%
weight % of not inf. control ([1]; 7.5 ppm in feed): 81%
dropping scores ([1]; 7.5 ppm in feed, grade 0 to 6): 6
lesion score ([1]; 7.5 ppm in feed, grade 0 to 6): 5.3
% efficacy tot. ([1]; 10 ppm in feed): 73%
mortality % ([1]; 10 ppm in feed): 0%
mortality n (died/employed) ([1]; 10 ppm in feed): 0/3
oocyst in % of inf. control tot. ([1]; 10 ppm in feed): 0%
weight % of not inf. control ([1]; 10 ppm in feed): 83%
dropping scores ([1]; 10 ppm in feed, grade 0 to 6): 6
lesion score ([1]; 10 ppm in feed, grade 0 to 6): 4.3
lesion score ([1]; 10 ppm in feed, grade 0 to 6, listed as Ex. 13): 5.3
% efficacy tot. [1, 9]: 78%
weight % of not inf. control [1, 9]: 76%
oocyst in % of inf. control ac. ([2]; 2.5 ppm in feed): 55%
oocyst in % of inf. control ac. [2, 7]: 33%
oocyst in % of inf. control ac. ([2]; 5 ppm in feed): 5%
oocyst in % of inf. control ac. [2, 8]: 25%
oocyst in % of inf. control ac. ([2]; 7.5 ppm in feed): 0%
oocyst in % of inf. control ac. ([2]; 10 ppm in feed): 0%
Efficacy against Eimeria acervulina (grade) ([2]; Dose 5 ppm): 2
Efficacy against Eimeria acervulina (grade) ([2]; Dose 10 ppm): 2
Efficacy against Eimeria acervulina (grade) ([2]; Dose 25 ppm): D D D
oocyst in % of inf. control max. ([3]; 2.5 ppm in feed): 0%
oocyst in % of inf. control max. [3, 7]: 55%
oocyst in % of inf. control max. ([3]; 5 ppm in feed): 0%
oocyst in % of inf. control max. [3, 8]: 36%
oocyst in % of inf. control max. ([3]; 7.5 ppm in feed): 0%
oocyst in % of inf. control max. ([3]; 10 ppm in feed): 0%
Efficacy against Eimeria maxima (grade) ([3]; Dose 5 ppm): 1
Efficacy against Eimeria maxima (grade) ([3]; Dose 10 ppm): 2
Efficacy against Eimeria maxima (grade) ([3]; Dose 25 ppm): D D D
oocyst in % of inf. control ten. ([4]; 2.5 ppm in feed): 27%
oocyst in % of inf. control ten. [4, 7]: >100%
oocyst in % of inf. control ten. ([4]; 5 ppm in feed): 3%
oocyst in % of inf. control ten. [4, 8]: 27%
oocyst in % of inf. control ten. ([4]; 7.5 ppm in feed): 0%
oocyst in % of inf. control ten. ([4]; 10 ppm in feed): 0%
Efficacy against Eimeria tenella (grade) ([4]; Dose 5 ppm): 1
Efficacy against Eimeria tenella (grade) ([4]; Dose 10 ppm): 2
Efficacy against Eimeria tenella (grade) ([4]; Dose 25 ppm): D D D

Reference: patent US6569881B1, “Substituted benzimidazole, the production thereof and the use thereof as means against parasitic protozoa” (Bayer Aktiengesellschaft, priority 1999, dated 2003)
